Experiments:
Type in all cases: in vivo
[1] = tested on: Alopecurus myosuroides (ALOMY); test: Example B post-emergence herbicidal activity, glasshouse pot test; details: 312 h, rate 250 g/ha, evaluated after 13 days, scale 0-100, read-out: Post-emergence activity ALOMY (100=total damage to plant; 0=no damage to plant)
Procedure: (§1) Seeds of a variety of test species were sown in standard soil in pots. After cultivation for one day (pre-emergence) or after 8 days cultivation (post-emergence) under controlled conditions in a glasshouse (at 24/16° C., day/night; 14 hours light; 65% humidity), the plants were sprayed with an aqueous spray solution derived from the formulation of the technical active ingredient of formula I in acetone/water (50:50) solution containing 0.5% Tween 20 (polyoxyethelyene sorbitan monolaurate, CAS RN 9005-64-5). The test plants were then grown in a glasshouse under controlled conditions in a glasshouse (at 24/16° C., day/night; 14 hours light; 65% humidity) and watered twice daily. After 13 days for pre and post-emergence, the test was evaluated (100=total damage to plant; 0=no damage to plant). Setaria faberi (SETFA), Lolium perenne (LOLPE), Alopecurus myosuroides (ALOMY), Echinochloa crus-galli (ECHCG), and Avena fatua (AVEFA). Post-Emergence Activity

[2] = tested on: Echinochloa crus-galli (ECHCG); test: as above; details: 312 h, rate 250 g/ha, evaluated after 13 days, scale 0-100, read-out: Post-emergence activity ECHCG (100=total damage to plant; 0=no damage to plant)
Procedure: as §1

Avena fatua (AVEFA) [3] = test: as above; details: 312 h, rate 250 g/ha, evaluated after 13 days, scale 0-100, read-out: Post-emergence activity AVEFA (100=total damage to plant; 0=no damage to plant)
Procedure: as §1

Lolium perenne (LOLPE) [4] = test: as above; details: 312 h, rate 250 g/ha, evaluated after 13 days, scale 0-100, read-out: Post-emergence activity LOLPE (100=total damage to plant; 0=no damage to plant)
Procedure: as §1

[5] = tested on: Alopecurus myosuroides (ALOMY); test: Example B pre-emergence herbicidal activity, glasshouse pot test; details: 312 h, rate 250 g/ha, evaluated after 13 days, scale 0-100, read-out: Pre-emergence activity ALOMY (100=total damage to plant; 0=no damage to plant)
Procedure: as §1, with “Pre-Emergence” for “Post-Emergence”

[6] = tested on: Echinochloa crus-galli (ECHCG); test: as above; details: 312 h, rate 250 g/ha, evaluated after 13 days, scale 0-100, read-out: Pre-emergence activity ECHCG (100=total damage to plant; 0=no damage to plant)
Procedure: as §1, with “Pre-Emergence” for “Post-Emergence”

Avena fatua (AVEFA) [7] = test: as above; details: 312 h, rate 250 g/ha, evaluated after 13 days, scale 0-100, read-out: Pre-emergence activity AVEFA (100=total damage to plant; 0=no damage to plant)
Procedure: as §1, with “Pre-Emergence” for “Post-Emergence”

Lolium perenne (LOLPE) [8] = test: as above; details: 312 h, rate 250 g/ha, evaluated after 13 days, scale 0-100, read-out: Pre-emergence activity LOLPE (100=total damage to plant; 0=no damage to plant)
Procedure: as §1, with “Pre-Emergence” for “Post-Emergence”

| Structure (SMILES) | pest or weed control at 250 g/ha [1] [%] | pest or weed control at 250 g/ha [2] [%] | pest or weed control at 250 g/ha (Avena fatua (AVEFA) [3]) [%] | pest or weed control at 250 g/ha (Lolium perenne (LOLPE) [4]) [%] | pest or weed control at 250 g/ha [5] [%] | pest or weed control at 250 g/ha [6] [%] | pest or weed control at 250 g/ha (Avena fatua (AVEFA) [7]) [%] | pest or weed control at 250 g/ha (Lolium perenne (LOLPE) [8]) [%] |
| --- | --- | --- | --- | --- | --- | --- | --- | --- |
| CCc1ccc(-c2ccc(Cl)cc2C)cc1C1=C(O)C(C)(C)CCC1=O [Compound T4, 2-(4′-chloro-4-ethyl-2′-methylbiphen-3-yl)-4,4-dimethylcyclohexane-1,3-dione] | 0 | 100 | 0 | 50 | 20 | 90 | 0 | 40 |
| CCc1ccc(-c2ccc(Cl)c(Cl)c2)cc1C1=C(O)C(C)(C)CCC1=O [Compound T5] | 70 | 100 | 90 | 80 | 0 | 0 | 0 | 0 |
| CCc1ccc(-c2ccc(Cl)c(OC)c2)cc1C1=C(O)C(C)(C)CCC1=O [Compound T6] | 0 | 100 | 40 | 60 | 0 | 80 | 0 | 0 |
| CCc1ccc(-c2ccc(Cl)c(C(F)(F)F)c2)cc1C1=C(O)C(C)(C)CCC1=O [Compound T8] | 40 | 100 | 30 | 80 | 0 | 100 | 20 | 90 |
| CCc1ccc(-c2ccc(Cl)c(F)c2)cc1C1=C(O)C(C)(C)CCC1=O [Compound T10] | 70 | 100 | 90 | 90 | 0 | 100 | 20 | 90 |
| CCc1ccc(-c2ccc(Cl)nc2)cc1C1=C(O)C(C)(C)CCC1=O [Compound T11] | 60 | 90 | 60 | 60 | 0 | 20 | 0 | 0 |
| CCc1ccc(-c2ccc(Cl)nc2Cl)cc1C1=C(O)C(C)(C)CCC1=O [Compound T12] | 0 | 90 | 0 | 0 | 0 | 0 | 0 | 0 |
| CCc1ccc(-c2c(F)cc(Cl)cc2F)cc1C1=C(O)C(C)(C)CCC1=O [Compound T13] | 0 | 100 | 0 | 50 | 0 | 40 | 0 | 50 |
| CCc1ccc(-c2ccc(Cl)c(F)c2Cl)cc1C1=C(O)C(C)(C)CCC1=O [Compound T15] | 0 | 100 | 40 | 50 | 0 | 100 | 0 | 90 |
| CCc1ccc(-c2ccc(Cl)c(F)c2F)cc1C1=C(O)C(C)(C)CCC1=O [Compound T16] | 50 | 100 | 90 | 90 | 30 | 90 | 20 | 80 |
| CCc1ccc(-c2ccc(Cl)c(Cl)c2F)cc1C1=C(O)C(C)(C)CCC1=O [Compound T17] | 0 | 90 | 0 | 40 | 0 | 80 | 0 | 0 |
| CCc1ccc(-c2ccc(Cl)cc2Cl)cc1C1=C(O)C(C)(C)CCC1=O [Compound T18] | 30 | 90 | 40 | 80 | 30 | 90 | 20 | 80 |
| CCc1ccc(-c2cc(Cl)c(Cl)cc2Cl)cc1C1=C(O)C(C)(C)CCC1=O [Compound T20] | 0 | 80 | 40 | 70 | 0 | 90 | 0 | 50 |
| CCc1ccc(-c2ccc(Cl)cc2C)cc1C1=C(O)CC(C)(C)CC1=O [Compound T21] | 0 | 80 | 0 | 70 | 0 | 40 | 30 | 50 |
| CCc1ccc(-c2ccc(Cl)c(Cl)c2)cc1C1=C(O)CC(C)(C)CC1=O [Compound T22] | 70 | 100 | 40 | 100 | 20 | 90 | 40 | 80 |
| CCc1ccc(-c2ccc(Cl)c(OC)c2)cc1C1=C(O)CC(C)(C)CC1=O [Compound T23] | 90 | 100 | 60 | 100 | 40 | 90 | 20 | 70 |
| CCc1ccc(-c2ccc(Cl)c(C(F)(F)F)c2)cc1C1=C(O)CC(C)(C)CC1=O [Compound T25] | 80 | 100 | 80 | 100 | 30 | 80 | 20 | 70 |
| CCc1ccc(-c2ccc(Cl)s2)cc1C1=C(O)CC(C)(C)CC1=O [Compound T26] | 30 | 80 | 0 | 70 | 20 | 100 | 0 | 100 |
| CCc1ccc(-c2ccc(Cl)nc2)cc1C1=C(O)CC(C)(C)CC1=O [Compound T27] | 90 | 100 | 70 | 80 | 0 | 0 | 0 | 0 |

— patent US8741806B2, “Herbicides” (Syngenta Limited, priority 2009, dated 2014)
